# The NIST ThermoML archive (doi:10.1016/j.jct.2009.06.001)
# Numbers after ± are expanded uncertainties.
# Assays:
# [1] = mn = molality of the nth substance listed, in mol/kg; details: 298.15 K, 101 kPa, Liquid; for speed of sound: Sing-around technique in a fixed-path interferometer; for mass density: Vibrating tube method
# [2] = 298.15 K, 101.33 kPa, Liquid; for speed of sound: Sing-around technique in a fixed-path interferometer; for mass density: Vibrating tube method
smiles,measurement,setting,value
c1ccc(-c2ccccc2-c2ccccc2)cc1 [o-terphenyl] + C1CCCCC1,speed of sound,[1]; m1 = 0.0245,1256.1 ± 1.8 m/s
same,speed of sound,[1]; m1 = 0.0451,1256.8 ± 1.8 m/s
same,speed of sound,[1]; m1 = 0.0688,1257.5 ± 1.8 m/s
same,speed of sound,[1]; m1 = 0.093,1258.4 ± 1.8 m/s
same,speed of sound,[1]; m1 = 0.1144,1259 ± 1.8 m/s
same,mass density,[1]; m1 = 0.0245,775.07 ± 1.6 kg/m3
same,mass density,[1]; m1 = 0.0451,776.06 ± 1.6 kg/m3
same,mass density,[1]; m1 = 0.0688,777.19 ± 1.6 kg/m3
same,mass density,[1]; m1 = 0.093,778.35 ± 1.6 kg/m3
same,mass density,[1]; m1 = 0.1144,779.36 ± 1.6 kg/m3
c1ccc(-c2cccc(-c3ccccc3)c2)cc1 [m-terphenyl] + C1CCCCC1,speed of sound,[1]; m1 = 0.0253,1256.5 ± 1.8 m/s
same,speed of sound,[1]; m1 = 0.0482,1257.4 ± 1.8 m/s
same,speed of sound,[1]; m1 = 0.0693,1258.2 ± 1.8 m/s
same,speed of sound,[1]; m1 = 0.0928,1259.2 ± 1.8 m/s
same,speed of sound,[1]; m1 = 0.1161,1260.1 ± 1.8 m/s
same,mass density,[1]; m1 = 0.0253,775.15 ± 1.6 kg/m3
same,mass density,[1]; m1 = 0.0482,776.28 ± 1.6 kg/m3
same,mass density,[1]; m1 = 0.0693,777.33 ± 1.6 kg/m3
same,mass density,[1]; m1 = 0.0928,778.48 ± 1.6 kg/m3
same,mass density,[1]; m1 = 0.1161,779.62 ± 1.6 kg/m3
c1ccc(-c2ccccc2-c2ccccc2)cc1 [o-terphenyl] + CCCCCCC,speed of sound,[1]; m1 = 0.0267,1132.8 ± 1.8 m/s
same,speed of sound,[1]; m1 = 0.0392,1133.5 ± 1.8 m/s
same,speed of sound,[1]; m1 = 0.0544,1134.1 ± 1.8 m/s
same,speed of sound,[1]; m1 = 0.0652,1134.6 ± 1.8 m/s
same,speed of sound,[1]; m1 = 0.0763,1135.2 ± 1.8 m/s
same,mass density,[1]; m1 = 0.0267,681.11 ± 1.6 kg/m3
same,mass density,[1]; m1 = 0.0392,681.85 ± 1.6 kg/m3
same,mass density,[1]; m1 = 0.0544,682.75 ± 1.6 kg/m3
same,mass density,[1]; m1 = 0.0652,683.4 ± 1.6 kg/m3
same,mass density,[1]; m1 = 0.0763,684.05 ± 1.6 kg/m3
c1ccc2ccccc2c1 [naphthalene] + C1CCCCC1,speed of sound,[1]; m1 = 0.0805,1256.5 ± 1.8 m/s
same,speed of sound,[1]; m1 = 0.1659,1257.8 ± 1.8 m/s
same,speed of sound,[1]; m1 = 0.2522,1259.1 ± 1.8 m/s
same,speed of sound,[1]; m1 = 0.3257,1260.2 ± 1.8 m/s
same,speed of sound,[1]; m1 = 0.4055,1261.5 ± 1.8 m/s
same,mass density,[1]; m1 = 0.0805,775.71 ± 1.6 kg/m3
same,mass density,[1]; m1 = 0.1659,777.64 ± 1.6 kg/m3
same,mass density,[1]; m1 = 0.2522,779.56 ± 1.6 kg/m3
same,mass density,[1]; m1 = 0.3257,781.18 ± 1.6 kg/m3
same,mass density,[1]; m1 = 0.4055,782.91 ± 1.6 kg/m3
c1ccc2c(c1)ccc1ccccc12 [phenanthrene] + C1CCCCC1,speed of sound,[1]; m1 = 0.0343,1256.4 ± 1.8 m/s
same,speed of sound,[1]; m1 = 0.0591,1257.2 ± 1.8 m/s
same,speed of sound,[1]; m1 = 0.0896,1258.2 ± 1.8 m/s
same,speed of sound,[1]; m1 = 0.1162,1259 ± 1.8 m/s
same,speed of sound,[1]; m1 = 0.1455,1259.8 ± 1.8 m/s
same,mass density,[1]; m1 = 0.0343,775.27 ± 1.6 kg/m3
same,mass density,[1]; m1 = 0.0591,776.28 ± 1.6 kg/m3
same,mass density,[1]; m1 = 0.0896,777.54 ± 1.6 kg/m3
same,mass density,[1]; m1 = 0.1162,778.63 ± 1.6 kg/m3
same,mass density,[1]; m1 = 0.1455,779.78 ± 1.6 kg/m3
C1CCCCC1 [cyclohexane],speed of sound,[2],1255.3 ± 1.8 m/s
same,mass density,[2],773.87 ± 1.6 kg/m3
c1ccc(-c2ccccc2)cc1 [biphenyl] + CCCCCCC,speed of sound,[1]; m1 = 0.0409,1133 ± 1.8 m/s
same,speed of sound,[1]; m1 = 0.0772,1134.4 ± 1.8 m/s
same,speed of sound,[1]; m1 = 0.113,1135.6 ± 1.8 m/s
same,speed of sound,[1]; m1 = 0.1561,1137 ± 1.8 m/s
same,speed of sound,[1]; m1 = 0.1949,1138.3 ± 1.8 m/s
same,mass density,[1]; m1 = 0.0409,681.02 ± 1.6 kg/m3
same,mass density,[1]; m1 = 0.0772,682.37 ± 1.6 kg/m3
same,mass density,[1]; m1 = 0.113,683.67 ± 1.6 kg/m3
same,mass density,[1]; m1 = 0.1561,685.21 ± 1.6 kg/m3
same,mass density,[1]; m1 = 0.1949,686.6 ± 1.6 kg/m3
C1CCCCC1 [cyclohexane] + c1ccccc1,speed of sound,[1]; m2 = 0.162,1254.7 ± 1.8 m/s
same,speed of sound,[1]; m2 = 0.3316,1254.2 ± 1.8 m/s
same,speed of sound,[1]; m2 = 0.5187,1253.5 ± 1.8 m/s
same,speed of sound,[1]; m2 = 0.6616,1253.2 ± 1.8 m/s
same,speed of sound,[1]; m2 = 0.8272,1252.7 ± 1.8 m/s
same,mass density,[1]; m2 = 0.162,774.73 ± 1.6 kg/m3
same,mass density,[1]; m2 = 0.3316,775.59 ± 1.6 kg/m3
same,mass density,[1]; m2 = 0.5187,776.54 ± 1.6 kg/m3
same,mass density,[1]; m2 = 0.6616,777.26 ± 1.6 kg/m3
same,mass density,[1]; m2 = 0.8272,778.07 ± 1.6 kg/m3
c1ccc2ccccc2c1 [naphthalene] + CCCCCCC,speed of sound,[1]; m1 = 0.0934,1134.3 ± 1.8 m/s
same,speed of sound,[1]; m1 = 0.1975,1137.2 ± 1.8 m/s
same,speed of sound,[1]; m1 = 0.2708,1139.1 ± 1.8 m/s
same,speed of sound,[1]; m1 = 0.3725,1141.8 ± 1.8 m/s
same,speed of sound,[1]; m1 = 0.4561,1144 ± 1.8 m/s
same,mass density,[1]; m1 = 0.0934,682.41 ± 1.6 kg/m3
same,mass density,[1]; m1 = 0.1975,685.54 ± 1.6 kg/m3
same,mass density,[1]; m1 = 0.2708,687.7 ± 1.6 kg/m3
same,mass density,[1]; m1 = 0.3725,690.68 ± 1.6 kg/m3
same,mass density,[1]; m1 = 0.4561,693.03 ± 1.6 kg/m3
c1ccccc1 [benzene] + CCCCCCC,speed of sound,[1]; m1 = 0.1915,1132.3 ± 1.8 m/s
same,speed of sound,[1]; m1 = 0.3783,1133.2 ± 1.8 m/s
same,speed of sound,[1]; m1 = 0.5615,1133.9 ± 1.8 m/s
same,speed of sound,[1]; m1 = 0.7515,1134.8 ± 1.8 m/s
same,speed of sound,[1]; m1 = 0.943,1135.8 ± 1.8 m/s
same,mass density,[1]; m1 = 0.1915,681.6 ± 1.6 kg/m3
same,mass density,[1]; m1 = 0.3783,683.56 ± 1.6 kg/m3
same,mass density,[1]; m1 = 0.5615,685.43 ± 1.6 kg/m3
same,mass density,[1]; m1 = 0.7515,687.34 ± 1.6 kg/m3
same,mass density,[1]; m1 = 0.943,689.24 ± 1.6 kg/m3
CCCCCCC [heptane],speed of sound,[2],1131.4 ± 1.8 m/s
same,mass density,[2],679.55 ± 1.6 kg/m3
c1ccc2c(c1)ccc1ccccc12 [phenanthrene] + CCCCCCC,speed of sound,[1]; m1 = 0.0349,1133.2 ± 1.8 m/s
same,speed of sound,[1]; m1 = 0.0513,1134 ± 1.8 m/s
same,speed of sound,[1]; m1 = 0.0739,1135 ± 1.8 m/s
same,speed of sound,[1]; m1 = 0.0812,1135.3 ± 1.8 m/s
same,speed of sound,[1]; m1 = 0.1012,1136.2 ± 1.8 m/s
same,mass density,[1]; m1 = 0.0349,681.3 ± 1.6 kg/m3
same,mass density,[1]; m1 = 0.0513,682.12 ± 1.6 kg/m3
same,mass density,[1]; m1 = 0.0739,683.26 ± 1.6 kg/m3
same,mass density,[1]; m1 = 0.0812,683.59 ± 1.6 kg/m3
same,mass density,[1]; m1 = 0.1012,684.63 ± 1.6 kg/m3
c1ccc(-c2cccc(-c3ccccc3)c2)cc1 [m-terphenyl] + CCCCCCC,speed of sound,[1]; m1 = 0.0245,1133 ± 1.8 m/s
same,speed of sound,[1]; m1 = 0.04,1133.8 ± 1.8 m/s
same,speed of sound,[1]; m1 = 0.0536,1134.6 ± 1.8 m/s
same,speed of sound,[1]; m1 = 0.0666,1135.3 ± 1.8 m/s
same,speed of sound,[1]; m1 = 0.076,1135.9 ± 1.8 m/s
same,mass density,[1]; m1 = 0.0245,681.04 ± 1.6 kg/m3
same,mass density,[1]; m1 = 0.04,682 ± 1.6 kg/m3
same,mass density,[1]; m1 = 0.0536,682.83 ± 1.6 kg/m3
same,mass density,[1]; m1 = 0.0666,683.63 ± 1.6 kg/m3
same,mass density,[1]; m1 = 0.076,684.21 ± 1.6 kg/m3
c1ccc(-c2ccccc2)cc1 [biphenyl] + C1CCCCC1,speed of sound,[1]; m1 = 0.0342,1256 ± 1.8 m/s
same,speed of sound,[1]; m1 = 0.0676,1256.7 ± 1.8 m/s
same,speed of sound,[1]; m1 = 0.1061,1257.5 ± 1.8 m/s
same,speed of sound,[1]; m1 = 0.1335,1258.1 ± 1.8 m/s
same,speed of sound,[1]; m1 = 0.1732,1259 ± 1.8 m/s
same,mass density,[1]; m1 = 0.0342,774.82 ± 1.6 kg/m3
same,mass density,[1]; m1 = 0.0676,775.74 ± 1.6 kg/m3
same,mass density,[1]; m1 = 0.1061,776.79 ± 1.6 kg/m3
same,mass density,[1]; m1 = 0.1335,777.52 ± 1.6 kg/m3
same,mass density,[1]; m1 = 0.1732,778.61 ± 1.6 kg/m3
